One assay addresses human CB2 receptors (Homo sapiens (Human), UniProt P34972). The experiment in a line: human CB2 radioligand binding assay ([3H]CP 55,940 competition). The procedure:
(§1) The CB1 and CB2 radioligand binding assays described herein are utilized to ascertain the affinity of compounds of the present application for binding to CB2 relative to CB1 receptors.
HEK293 cells stably expressing human CB2 receptors were grown until a confluent monolayer was formed. Briefly, the cells were harvested and homogenized in TE buffer (50 mM Tris-HCl, 1 mM MgCl2, and 1 mM EDTA) using a polytron for 2×10 second bursts in the presence of protease inhibitors, followed by centrifugation at 45,000×g for 20 minutes. The final membrane pellet was re-homogenized in storage buffer (50 mM Tris-HCl, 1 mM MgCl2, and 1 mM EDTA and 10% sucrose) and frozen at −78° C. until used. Saturation binding reactions were initiated by the addition of membrane preparation (protein concentration of 5 μg/well for human CB2) into wells of a deep well plate containing [^3H]CP 55,940 (120 Ci/mmol, a nonselective CB agonist commercially available from Tocris) in assay buffer (50 mM Tris, 2.5 mM EDTA, 5 mM MgCl2, and 0.5 mg/mL fatty acid free BSA, pH 7.4). After 90 min incubation at 30° C., binding reaction was terminated by the addition of 300 μL/well of cold assay buffer followed by rapid vacuum filtration through a UniFilter-96 GF/C filter plates (pre-soaked in 1 mg/mL BSA for 2 hours). The bound activity was counted in a TopCount using Microscint-20. Saturation experiments were conducted with twelve concentrations of [^3H]CP 55,940 ranging from 0.01 to 8 nM. Competition experiments were conducted with 0.5 nM [^3H]CP 55,940 and five concentrations (0.01 nM to 10 μM) of displacing ligands. The addition of 10 μM unlabeled CP 55,940 (Tocris, Ellisville, Mo.) was used to assess nonspecific binding.

The target of assay [1] is T1, rat CB2 (Rattus norvegicus (Rat), UniProt Q9QZN9). The experiment in a line: rat CB2 radioligand binding assay ([3H]CP 55,940 competition). The procedure:
as §1
HEK293 cells stably expressing rat CB2 receptors were grown until a confluent monolayer was formed. Briefly, the cells were harvested and homogenized in TE buffer (50 mM Tris-HCl, 1 mM MgCl2, and 1 mM EDTA) using a polytron for 2×10 second bursts in the presence of protease inhibitors, followed by centrifugation at 45,000×g for 20 minutes. The final membrane pellet was re-homogenized in storage buffer (50 mM Tris-HCl, 1 mM MgCl2, and 1 mM EDTA and 10% sucrose) and frozen at −78° C. until used. Saturation binding reactions were initiated by the addition of membrane preparation (protein concentration of 20 μg/well for rat CB2) into wells of a deep well plate containing [^3H]CP 55,940 (120 Ci/mmol, a nonselective CB agonist commercially available from Tocris) in assay buffer (50 mM Tris, 2.5 mM EDTA, 5 mM MgCl2, and 0.5 mg/mL fatty acid free BSA, pH 7.4). After 45 min incubation at 30° C., binding reaction was terminated by the addition of 300 μl/well of cold assay buffer followed by rapid vacuum filtration through a UniFilter-96 GF/C filter plates (pre-soaked in 1 mg/mL BSA for 2 hours). The bound activity was counted in a TopCount using Microscint-20. Saturation experiments were conducted with twelve concentrations of [^3H]CP 55,940 ranging from 0.01 to 8 nM. Competition experiments were conducted with 0.5 nM [^3H]CP 55,940 and five concentrations of displacing ligands selected from the range of 0.01 nM to […] addition of 10 μM unlabeled CP 55,940 (Tocris, Ellisville, Mo.) was used to assess nonspecific binding.

Assay [2] concerns the target T1, rat CB2. Description: CB2 cyclase functional assay (HitHunter cAMP). Type of assay: cell-based. The following applies: HEK cells, forskolin 18 μM. The procedure:
(§2) The cyclase functional assays were performed using the HitHunter™ cAMP assay kit from DiscoveRx (Fremont, Calif.) according to vendor's protocol. Briefly, HEK cells expressing CB2 or CB1 receptors (rat or human) were detached using cell dissociation buffer (Invitrogen, Carlsbad, Calif.), dispersed and placed in suspension at 10,000 cells per well in 96 well plates prior to the assay. Cell suspensions were incubated at 37° C. for 20 min with variable concentrations of test ligands and or 10 μM CP 55,940-positive control in the presence of a fixed concentration of forskolin (18 μM for rat CB2 and 37 μM for rat CB1) in Dulbescco's phosphate-buffered saline (Invitrogen, Carlsbad, Calif.) supplemented with bovine serum albumin (0.01% final concentration). The reactions were terminated by the addition of lysis buffer and the luminescence was detected following the procedure according to the manufacturer's instructions. EC50 values were calculated using sigmoidal dose-response curve fitting from Prism (GraphPad).

The target in the next assay is rat CB1 (Rattus norvegicus (Rat), UniProt P20272). Description: CB1 cyclase functional assay (HitHunter cAMP). Type of assay: cell-based. The following applies: HEK cells, forskolin 37 μM; read-out: rCB1 cyclase (EC50). The procedure: as §2
The mark [3] stands for this setting: HEK293 membranes, 0.5 nM [3H]CP 55,940, read-out: human CB2 (Ki).
[4] abbreviates: HEK293 membranes, 0.5 nM [3H]CP 55,940, read-out: rat CB2 (Ki).

Read-outs that look alike come from different tables or passages of the source.

T1 sequence (Q9QZN9 whole entry): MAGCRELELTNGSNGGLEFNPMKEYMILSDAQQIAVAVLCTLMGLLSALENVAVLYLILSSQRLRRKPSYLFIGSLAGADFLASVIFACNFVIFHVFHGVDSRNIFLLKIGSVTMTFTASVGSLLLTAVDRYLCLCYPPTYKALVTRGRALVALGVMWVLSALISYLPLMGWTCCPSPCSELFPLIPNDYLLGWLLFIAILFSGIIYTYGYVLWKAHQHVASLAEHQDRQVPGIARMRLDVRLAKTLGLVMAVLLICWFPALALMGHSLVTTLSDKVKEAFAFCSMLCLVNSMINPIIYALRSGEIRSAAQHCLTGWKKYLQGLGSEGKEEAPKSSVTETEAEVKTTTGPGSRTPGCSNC
Chain of human CB2 receptors (P34972 whole entry): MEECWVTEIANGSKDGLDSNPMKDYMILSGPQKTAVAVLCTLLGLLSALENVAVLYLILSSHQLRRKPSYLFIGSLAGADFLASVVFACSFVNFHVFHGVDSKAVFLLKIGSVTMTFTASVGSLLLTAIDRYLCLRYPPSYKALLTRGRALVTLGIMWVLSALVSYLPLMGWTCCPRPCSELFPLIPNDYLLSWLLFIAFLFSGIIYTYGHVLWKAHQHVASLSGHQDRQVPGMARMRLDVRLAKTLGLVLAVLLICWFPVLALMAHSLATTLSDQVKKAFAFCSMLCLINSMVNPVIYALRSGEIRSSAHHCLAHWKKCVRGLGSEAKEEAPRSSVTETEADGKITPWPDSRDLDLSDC

For `CCCCn1nc(C(C)(C)C)s/c1=N\C(=O)c1cc(C(F)(F)F)ccc1ONC(C)(C)C` [Example 34, 2-[(tert-butylamino)oxy]-N-[(2Z)-3-butyl-5-tert-butyl-1,3,4-thiadiazol-2(3H)-ylidene]-5-(trifluoromethyl)benzamide], the inhibitory constant (Ki) (in general, the equilibrium dissociation constant of an inhibitor or competing ligand from its target) stood at 11 nM on human CB2 receptors (setting [3]) and 1.9 nM at rat CB2 [1] (setting [4]). Also, the EC50 (usually the midpoint of the concentration-response curve) was 0.43 nM on rat CB2 [2] and over 27000 nM at rat CB1.
As to `CCCCn1nc(C(C)(C)C)s/c1=N\C(=O)c1cc(C(F)(F)F)ccc1ONC(=O)OC(C)(C)C` [Example 141, tert-butyl 2-({[(2Z)-3-butyl-5-tert-butyl-1,3,4-thiadiazol-2(3H)-ylidene]amino}carbonyl)-4-(trifluoromethyl)phenoxycarbamate], the results for the inhibitory constant (Ki) on human CB2 receptors and on rat CB2 [1] were 0.32 nM and 2.3 nM, respectively. For the same compound, the EC50 on rat CB2 [2] stood at 1.12 nM; on rat CB1 it was 273 nM.
For the compound `Cn1c(C(C)(C)C)c/c(=N\C(=O)c2cc(C(F)(F)F)ccc2ONC(C)(C)C)n1C[C@H]1CCCO1` [Example 142, 2-[(tert-butylamino)oxy]-N-{(3E)-5-tert-butyl-1-methyl-2-[(2R)-tetrahydrofuran-2-ylmethyl]-1,2-dihydro-3H-pyrazol-3-ylidene}-5-(trifluoromethyl)benzamide], the Ki at human CB2 receptors amounted to 24 nM; on rat CB2 [1], 9.4 nM. Further, on rat CB1, the EC50 was over 27000 nM.
`CCCCn1nc(C(C)(C)C)s/c1=N\C(=O)c1cc(C(F)(F)F)ccc1ONC(C)C` [Example 144, N-[(2Z)-3-butyl-5-tert-butyl-1,3,4-thiadiazol-2(3H)-ylidene]-2-[(isopropylamino)oxy]-5-(trifluoromethyl)benzamide]: the Ki on human CB2 receptors (setting [3]) stood at 0.6 nM; at rat CB2 [1] (setting [4]), 0.8 nM. Moreover, the half-maximal effective concentration (EC50) on rat CB2 [2] worked out at 0.22 nM; on rat CB1 it was 415 nM.
As for `CCCCn1nc(C(C)(C)C)s/c1=N\C(=O)c1cc(C(F)(F)F)ccc1NNC(=O)C(C)(C)C` [Example 193, N-[(2Z)-3-butyl-5-tert-butyl-1,3,4-thiadiazol-2(3H)-ylidene]-2-[2-(2,2-dimethylpropanoyl)hydrazino]-5-(trifluoromethyl)benzamide], the inhibitory constant (Ki) at human CB2 receptors (setting [3]) stood at 0.4 nM; at rat CB2 [1] (setting [4]) it was 0.5 nM.
The like results for `CCCCn1/c(=N/C(=O)c2cc(C(F)(F)F)ccc2O/N=C(\C)C(F)(F)F)cc(C(C)(C)C)n1C` [Example 194, N-[(3E)-2-butyl-5-tert-butyl-1-methyl-1,2-dihydro-3H-pyrazol-3-ylidene]-5-(trifluoromethyl)-2-({[(1E)-2,2,2-trifluoro-1-methylethylidene]amino}oxy)benzamide] were, in that order, 12 nM and 40 nM.
The like results for `CCCCn1nc(C(C)(C)C)s/c1=N\C(=O)c1cc(C(F)(F)F)ccc1ON=C(N)c1ccccn1` [Example 196, 2-({[amino(pyridin-2-yl)methylene]amino}oxy)-N-[(2Z)-3-butyl-5-tert-butyl-1,3,4-thiadiazol-2(3H)-ylidene]-5-(trifluoromethyl)benzamide] were, in that order, 18 nM and 4.1 nM.
For `CCCCn1nc(C(C)(C)C)s/c1=N\C(=O)c1cc(C(F)(F)F)ccc1NNC(=O)c1cccnc1` [Example 197, N-[(2Z)-3-butyl-5-tert-butyl-1,3,4-thiadiazol-2(3H)-ylidene]-2-[2-(pyridin-3-ylcarbonyl)hydrazino]-5-(trifluoromethyl)benzamide], in that order: 1.1 nM and 0.7 nM.
With `CCCCn1/c(=N/C(=O)c2cc(C(F)(F)F)ccc2NNC(=O)C(C)(C)C)cc(C(C)(C)C)n1C` [Example 198, N-[(3E)-2-butyl-5-tert-butyl-1-methyl-1,2-dihydro-3H-pyrazol-3-ylidene]-2-[2-(2,2-dimethylpropanoyl)hydrazino]-5-(trifluoromethyl)benzamide], the Ki on human CB2 receptors (setting [3]) worked out at 0.4 nM; on rat CB2 [1] (setting [4]), 1.7 nM.
The like results for `CCCCn1/c(=N/C(=O)c2cc(C(F)(F)F)ccc2NNC(=O)c2cccnc2)cc(C(C)(C)C)n1C` [Example 199, N-[(3E)-2-butyl-5-tert-butyl-1-methyl-1,2-dihydro-3H-pyrazol-3-ylidene]-2-[2-(pyridin-3-ylcarbonyl)hydrazino]-5-(trifluoromethyl)benzamide] were, in that order, 2.5 nM and 2.2 nM.
For `CCCCn1/c(=N/C(=O)c2cc(C(F)(F)F)ccc2NNC(=O)c2ccncc2)cc(C(C)(C)C)n1C` [Example 200, N-[(3E)-2-butyl-5-tert-butyl-1-methyl-1,2-dihydro-3H-pyrazol-3-ylidene]-2-(2-isonicotinoylhydrazino)-5-(trifluoromethyl)benzamide], in that order: 0.7 nM and 1.3 nM.
The like results for `CCCCn1nc(C(C)(C)C)s/c1=N\C(=O)c1cc(C(F)(F)F)ccc1NNC(N)=O` [Example 201, 2-[2-({[(2Z)-3-butyl-5-tert-butyl-1,3,4-thiadiazol-2(3H)-ylidene]amino}carbonyl)-4-(trifluoromethyl)phenyl]hydrazinecarboxamide] were, in that order, 47 nM and 5.2 nM.
For `CCCCn1nc(C(C)(C)C)s/c1=N\C(=O)c1cc(C(F)(F)F)ccc1NNCc1ccccc1` [Example 202, 2-(2-benzylhydrazino)-N-[(2Z)-3-butyl-5-tert-butyl-1,3,4-thiadiazol-2(3H)-ylidene]-5-(trifluoromethyl)benzamide], the Ki at human CB2 receptors (setting [3]) amounted to 43 nM; on rat CB2 [1] (setting [4]), 36 nM.
For `CCCCn1nc(C(C)(C)C)s/c1=N\C(=O)c1cc(C(F)(F)F)ccc1ON=C(N)c1ccncc1` [Example 203, 2-({[amino(pyridin-4-yl)methylene]amino}oxy)-N-[(2Z)-3-butyl-5-tert-butyl-1,3,4-thiadiazol-2(3H)-ylidene]-5-(trifluoromethyl)benzamide], in that order: 68 nM and 33 nM.
Regarding `CCCCn1nc(C(C)(C)C)s/c1=N\C(=O)c1cc(C(F)(F)F)ccc1ON=C(N)c1cccnc1` [Example 204, 2-({[amino(pyridin-3-yl)methylene]amino}oxy)-N-[(2Z)-3-butyl-5-tert-butyl-1,3,4-thiadiazol-2(3H)-ylidene]-5-(trifluoromethyl)benzamide], the Ki stood at 87 nM on human CB2 receptors (setting [3]) and 13 nM at rat CB2 [1] (setting [4]).
Consider `CCCCn1nc(C(C)(C)C)s/c1=N\C(=O)c1cc(C(F)(F)F)ccc1N(/N=C/c1cccc(C)n1)C(=O)OC(C)(C)C` [Example 205, tert-butyl (2E)-1-[2-({[(2Z)-3-butyl-5-tert-butyl-1,3,4-thiadiazol-2(3H)-ylidene]amino}carbonyl)-4-(trifluoromethyl)phenyl]-2-[(6-methylpyridin-2-yl)methylene]hydrazinecarboxylate], for which the Ki at human CB2 receptors was found to be 44 nM; on rat CB2 [1], 43 nM.

For the origin of these results see patent publication US8859596B2, “Compounds as cannabinoid receptor ligands” (priority 2008, dated 2014).
